ChEMBL document CHEMBL1136877, “2,4(5)-diarylimidazoles as inhibitors of hNaV1.2 sodium channels: pharmacological evaluation and structure-property relationships” (Bioorg Med Chem, 2009)
Active and inactive are the calls of the source. No cut-off for these calls is given here.

Experiments:
[1] = biological target: T1, Sodium channel protein type 2 subunit alpha (Homo sapiens, UniProt Q99250); assay: Inhibition of human Nav1.2 channel expressed in HEK cells at 10 uM by patch-clamp electrophysiology method; assay type: cell-based; conditions: HEK293
Target sequence in this assay (Q99250 whole entry, looked up): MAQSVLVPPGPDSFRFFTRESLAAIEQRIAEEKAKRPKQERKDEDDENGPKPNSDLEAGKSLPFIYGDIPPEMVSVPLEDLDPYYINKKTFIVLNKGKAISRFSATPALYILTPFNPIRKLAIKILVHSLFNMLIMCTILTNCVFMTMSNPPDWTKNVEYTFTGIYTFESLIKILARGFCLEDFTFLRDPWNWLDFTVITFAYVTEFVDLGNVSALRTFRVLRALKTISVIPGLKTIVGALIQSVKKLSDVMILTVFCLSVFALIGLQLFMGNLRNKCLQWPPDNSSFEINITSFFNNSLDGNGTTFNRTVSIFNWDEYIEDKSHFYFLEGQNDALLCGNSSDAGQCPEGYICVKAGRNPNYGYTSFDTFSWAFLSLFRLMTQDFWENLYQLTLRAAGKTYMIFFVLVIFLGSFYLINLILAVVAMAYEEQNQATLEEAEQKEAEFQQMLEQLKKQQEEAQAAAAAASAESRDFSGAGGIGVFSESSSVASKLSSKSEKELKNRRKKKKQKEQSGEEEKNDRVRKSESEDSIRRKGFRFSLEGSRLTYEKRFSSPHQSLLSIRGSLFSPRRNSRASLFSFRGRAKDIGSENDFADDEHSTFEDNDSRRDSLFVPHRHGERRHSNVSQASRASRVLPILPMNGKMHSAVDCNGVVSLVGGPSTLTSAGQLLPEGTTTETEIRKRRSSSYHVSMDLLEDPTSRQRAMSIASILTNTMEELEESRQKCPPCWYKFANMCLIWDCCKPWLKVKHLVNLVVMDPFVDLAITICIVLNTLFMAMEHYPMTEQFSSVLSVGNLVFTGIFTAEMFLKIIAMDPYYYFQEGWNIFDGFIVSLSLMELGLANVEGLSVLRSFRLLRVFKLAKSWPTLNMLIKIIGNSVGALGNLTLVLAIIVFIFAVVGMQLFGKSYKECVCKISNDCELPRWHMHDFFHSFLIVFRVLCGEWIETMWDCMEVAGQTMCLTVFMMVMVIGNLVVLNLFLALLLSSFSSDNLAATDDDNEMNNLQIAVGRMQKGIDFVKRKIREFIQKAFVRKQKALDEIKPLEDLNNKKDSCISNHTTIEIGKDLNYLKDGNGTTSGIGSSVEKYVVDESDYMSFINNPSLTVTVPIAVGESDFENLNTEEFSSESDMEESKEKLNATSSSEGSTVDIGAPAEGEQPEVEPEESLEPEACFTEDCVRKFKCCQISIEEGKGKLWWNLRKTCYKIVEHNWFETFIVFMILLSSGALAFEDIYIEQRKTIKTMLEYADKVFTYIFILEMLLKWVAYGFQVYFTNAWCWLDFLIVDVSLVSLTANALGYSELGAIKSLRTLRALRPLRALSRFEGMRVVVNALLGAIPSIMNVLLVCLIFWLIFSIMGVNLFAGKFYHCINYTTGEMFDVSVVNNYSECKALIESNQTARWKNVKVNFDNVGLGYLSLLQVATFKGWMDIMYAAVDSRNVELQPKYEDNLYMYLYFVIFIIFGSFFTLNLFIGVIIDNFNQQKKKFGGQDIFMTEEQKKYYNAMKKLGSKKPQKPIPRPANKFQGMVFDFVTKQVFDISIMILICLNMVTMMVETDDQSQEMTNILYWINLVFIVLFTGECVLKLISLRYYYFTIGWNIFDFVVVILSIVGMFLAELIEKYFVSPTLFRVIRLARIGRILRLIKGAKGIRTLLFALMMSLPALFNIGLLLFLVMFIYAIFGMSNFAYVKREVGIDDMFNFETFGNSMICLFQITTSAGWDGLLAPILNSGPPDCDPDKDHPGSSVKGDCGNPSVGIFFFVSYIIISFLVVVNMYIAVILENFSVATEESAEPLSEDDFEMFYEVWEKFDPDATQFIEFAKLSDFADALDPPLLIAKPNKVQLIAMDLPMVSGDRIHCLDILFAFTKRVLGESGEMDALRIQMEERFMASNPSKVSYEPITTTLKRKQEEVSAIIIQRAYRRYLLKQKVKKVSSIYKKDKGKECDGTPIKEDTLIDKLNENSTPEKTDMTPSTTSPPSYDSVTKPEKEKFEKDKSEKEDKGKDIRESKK

[2] = biological target: T1, Sodium channel protein type 2 subunit alpha; assay: Inhibition of human Nav1.2 channel expressed in HEK cells at 100 uM by patch-clamp electrophysiology method; assay type: cell-based; conditions: HEK293
Target sequence in this assay (Q99250 whole entry, looked up): as above

[3] = Dissociation constant, pKa by potentiometric pH-metric method; assay type: physicochemical
[4] = Octanol-buffer partition coefficient, log D at pH 7.4 by shake-flask method; assay type: physicochemical
[5] = biological target: T1, Sodium channel protein type 2 subunit alpha; assay: Inhibition of human Nav1.2 channel expressed in HEK cells by patch-clamp electrophysiology method; assay type: cell-based, HEK293
Target sequence in this assay (Q99250 whole entry): as the sequence (Q99250 whole entry, looked up) above

| inhibition [1] | inhibition [2] [%] | pKa [3] | logD [4] | IC50 [5] [µM] | SMILES |
| --- | --- | --- | --- | --- | --- |
| inactive | 33.3 | 5.83 | 3.66 | – | COc1ccc(-c2c[nH]c(-c3ccccc3)n2)cc1 |
| – | – | 5.19 | 4.9 | – | FC(F)(F)c1ccc(-c2nc(-c3ccccc3)c[nH]2)cc1 |
| 100% | 100 | – | – | 0.2 | FC(F)(F)c1cccc(-c2c[nH]c(-c3cccc(C(F)(F)F)c3)n2)c1 |
| 92.5% | 100 | 5.37 | 4.27 | 1.4 | Clc1ccc(-c2nc(-c3ccccc3)c[nH]2)cc1 |
| – | – | 5.45 | 4.76 | – | Clc1cccc(-c2c[nH]c(-c3ccccc3)n2)c1 |
| inactive | 20.4 | 4.92 | 3.89 | – | O=[N+]([O-])c1cccc(-c2nc(-c3ccccc3)c[nH]2)c1 |
| 31.5% | 96.6 | 5.47 | 4.53 | – | Clc1ccc(-c2c[nH]c(-c3ccccc3)n2)cc1 |
| inactive | 41.7 | 5.57 | 3.84 | – | COc1cccc(-c2nc(-c3ccccc3)c[nH]2)c1 |
| 15.6% | 85.8 | 4.82 | 3.9 | – | O=[N+]([O-])c1cccc(-c2c[nH]c(-c3ccccc3)n2)c1 |
| 49.2% | 95.2 | 5.11 | 4.54 | – | FC(F)(F)c1cccc(-c2nc(-c3ccccc3)c[nH]2)c1 |
| – | – | 6.03 | 3.62 | – | COc1ccc(-c2nc(-c3ccccc3)c[nH]2)cc1 |
| 27.5% | 43.6 | – | – | > 100 | FC(F)(F)c1cccc(-c2c[nH]c(-c3ccc(Cl)cc3)n2)c1 |
| 91.6% | 100 | 5.31 | 4.78 | 1.4 | FC(F)(F)c1ccc(-c2c[nH]c(-c3ccccc3)n2)cc1 |
| 82.9% | 100 | 5.27 | 4.72 | 2.7 | FC(F)(F)c1cccc(-c2c[nH]c(-c3ccccc3)n2)c1 |
| 14.2% | 35.6 | 5.58 | 3.74 | – | COc1cccc(-c2c[nH]c(-c3ccccc3)n2)c1 |
| 86.9% | 100 | – | – | 2.5 | O=[N+]([O-])c1ccc(-c2nc(-c3cccc(C(F)(F)F)c3)c[nH]2)cc1 |
| 7.5% | 92.2 | 5.12 | 4.54 | – | Clc1cccc(-c2nc(-c3ccccc3)c[nH]2)c1 |
| 7.8% | 80.5 | 5.65 | 3.72 | 40.6 | c1ccc(-c2c[nH]c(-c3ccccc3)n2)cc1 |
| 57.1% | 92.6 | 4.74 | 4.06 | – | O=[N+]([O-])c1ccc(-c2nc(-c3ccccc3)c[nH]2)cc1 |
| 12.1% | 35.1 | – | – | > 100 | Nc1nnc(-c2cccc(Cl)c2Cl)c(N)n1 [LAMOTRIGINE] |
| inactive | 30.3 | 5.12 | 3.95 | – | O=[N+]([O-])c1ccc(-c2c[nH]c(-c3ccccc3)n2)cc1 |
